# Assay results published in ChEMBL document CHEMBL1158206, “Ferintoic Acids A and B, New Cyclic Hexapeptides from the Freshwater Cyanobacterium Microcystis aeruginosa” (J Nat Prod, 1996).
# Activity calls are given as the source filed them. No cut-off for these calls is given here. Numbered stars: 1 amine (or outer) side, 2 acyl side, 3 side chain; on linkers, the order of the positions; unused ones are H or OH. Bridge positions count the residues as written; N and C are the ends. Square brackets hold non-standard residues; d marks the D form. Peptide text beside a SMILES is read from it. hTyr = N[C@@H](CCc1ccc(O)cc1)C(=O)O; aIle = CC[C@@H](C)[C@H](N)C(=O)O; NMeA = CN[C@@H](C)C(=O)O; CO = O=C([*:1])[*:2]
# Experiments:
# [1] = Inhibition of chymotrypsin at 150 uM
# [2] = Inhibition of chymotrypsin at 10 uM
SMILES,Activity [1],Activity [2]
CC[C@@H](C)[C@@H]1NC(=O)[C@H](NC(=O)N[C@@H](Cc2c[nH]c3ccccc23)C(=O)O)CCCCNC(=O)[C@H](Cc2ccccc2)NC(=O)[C@H](C)N(C)C(=O)[C@H](CCc2ccc(O)cc2)NC1=O,inactive,–
CC[C@@H](C)[C@@H]1NC(=O)[C@H](NC(=O)N[C@@H](Cc2ccc(O)cc2)C(=O)O)CCCCNC(=O)[C@H](Cc2ccccc2)NC(=O)[C@H](C)N(C)C(=O)[C@H](CCc2ccc(O)cc2)NC1=O ({Tyr-CO}-[dK][aIle][hTyr][NMeA]F; lactam 1-C),–,Active
CC(C)[C@@H]1NC(=O)[C@H](NC(=O)N[C@@H](Cc2c[nH]c3ccccc23)C(=O)O)CCCCNC(=O)[C@H](Cc2ccccc2)NC(=O)[C@H](C)N(C)C(=O)[C@H](CCc2ccc(O)cc2)NC1=O ({Trp-CO}-[dK]V[hTyr][NMeA]F; lactam 1-C),inactive,–
